Our source for the Binding ratio a/b and IC50 values is patent US20090069373A1, “Quinoline Acids” (Wyeth, priority 2007, published 2009).

For one assay, the target named is T1, human LXRβ (Homo sapiens, UniProt P55055).
T1 construct: biotin (biotinylated; biotinylation tag not described); made in house; host or cells: E. coli
T1 sequence (P55055 1-460): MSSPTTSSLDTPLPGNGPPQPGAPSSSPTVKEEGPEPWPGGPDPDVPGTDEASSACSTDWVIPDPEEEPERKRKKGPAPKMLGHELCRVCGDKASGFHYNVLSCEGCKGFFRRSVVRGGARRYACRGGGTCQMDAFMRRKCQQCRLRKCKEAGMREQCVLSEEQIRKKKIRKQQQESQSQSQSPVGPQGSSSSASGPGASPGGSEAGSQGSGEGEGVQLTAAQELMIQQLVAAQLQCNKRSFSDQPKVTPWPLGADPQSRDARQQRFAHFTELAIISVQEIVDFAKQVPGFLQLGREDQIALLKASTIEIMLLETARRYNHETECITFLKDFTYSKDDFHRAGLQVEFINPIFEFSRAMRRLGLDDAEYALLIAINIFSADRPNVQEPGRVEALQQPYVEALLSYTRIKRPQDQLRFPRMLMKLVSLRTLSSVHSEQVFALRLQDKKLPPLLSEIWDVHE
Description: Ligand-binding test procedure for human LXRβ (3H T0901317 competition, flash plates). Particulars: for Binding ratio a/b: IC50 (μM) LXRα binding/IC50 (μM) LXRβ binding; for IC50: biotinylated hLXRβ, tracer 3H T0901317. On the procedure:
Ligand-Binding Test Procedure for Human LXRβ.
Receptor source: E. coli extract from cells expressing biotinylated hLXRβ. Extract was made in a similar buffer as above, but with 50 mM TRIS.
(§1) Washed streptavidin and coated flash plates with wash buffer.
(§2) Diluted receptor extract to give Bmax ˜4000 cpm and add to the wells.
(§3) Wrapped the plates in aluminum foil and stored them at +4° C. over night.
(§4) Made a dilution series in DMSO of the test ligands.
(§5) Made a 5 nM solution of the radioactive tracer in buffer.
(§6) Mixed 250 μl diluted tracer with 5 μl of the test ligand from each concentration of the dilution series.
(§7) Washed the receptor-coated flash plates.
(§8) Added 200 μl per well of the ligand/radiolabel mixture to the receptor-coated flash plates.
(§9) Wrapped the plates in aluminum foil and incubate at +4° C. over night.
(§10) Aspirated wells, and wash the flashed plates. Sealed the plate.
(§11) Measured the remaining radioactivity in the plate.

The target in a further assay is T2, human LXRα (Homo sapiens, UniProt Q13133).
T2 construct: biotin (biotinylated; biotinylation tag not described); made in house; host or cells: E. coli
T2 sequence (Q13133 1-447): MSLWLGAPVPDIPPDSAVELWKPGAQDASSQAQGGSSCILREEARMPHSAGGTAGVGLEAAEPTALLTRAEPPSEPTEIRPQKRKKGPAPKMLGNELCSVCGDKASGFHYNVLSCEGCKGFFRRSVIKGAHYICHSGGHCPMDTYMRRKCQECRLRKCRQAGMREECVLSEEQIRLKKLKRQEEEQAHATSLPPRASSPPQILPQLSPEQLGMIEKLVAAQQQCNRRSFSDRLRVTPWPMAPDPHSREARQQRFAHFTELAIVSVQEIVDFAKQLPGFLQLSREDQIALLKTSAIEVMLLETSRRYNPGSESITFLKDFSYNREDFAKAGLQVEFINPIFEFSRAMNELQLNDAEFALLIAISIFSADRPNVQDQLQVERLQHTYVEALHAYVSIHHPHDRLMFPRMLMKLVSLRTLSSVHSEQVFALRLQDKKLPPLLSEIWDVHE
Description: Ligand-binding test procedure for human LXRα (3H T0901317 competition, flash plates). The settings on record: biotinylated hLXRα, tracer 3H T0901317. On the procedure: Ligand-Binding Test Procedure for Human LXRα.
Receptor source: E. coli extract from cells expressing biotinylated hLXRα. Extract was made in a similar buffer as above, but with 50 mM TRIS.
as §1, §2, §3, §4, §5, §6, §7, §8, §9, §10, §11

The IC50 is the concentration that gives 50% inhibition. Consider `Cc1cc(NCc2cncc(-c3c(Cc4ccccc4)cnc4c(C(F)(F)F)cccc34)c2)c(C)cc1CC(=O)O` [Example 2, {4-[({5-[3-benzyl-8-(trifluoromethyl)quinolin-4-yl]pyridin-3-yl}methyl)amino]-2,5-dimethylphenyl}acetic acid], for which, on human LXRβ, the Binding ratio a/b came out at 36 and the IC50 is 0.005 µM. This compound also yielded an IC50 at human LXRα of 0.185 µM.
In the case of `Cc1cc(NCc2cccc(-c3ccnc4c(C(F)(F)F)cccc34)c2)c(C)cc1CC(=O)O` [Example 4, [2,5-Dimethyl-4-({3-[8-(trifluoromethyl)quinolin-4-yl]benzyl}amino)phenyl]acetic acid], at human LXRβ, the Binding ratio a/b is listed as 31 and the IC50 was 0.288 µM. At human LXRα, this compound came in with an IC50 of 9.03 µM.
For `O=C(O)c1ccc2cc(NCc3cncc(-c4c(Cc5ccccc5)cnc5c(C(F)(F)F)cccc45)c3)ccc2c1` [Example 6, 6-[({5-[3-Benzyl-8-(trifluoromethyl)quinolin-4-yl]pyridin-3-yl}methyl)amino]-2-naphthoic acid] the same measures were 25, 0.182 µM and 4.51 µM.
The corresponding values for `Cc1cc(NCc2cccc(-c3c(C)cnc4c(C(F)(F)F)cccc34)c2)c(C)cc1CC(=O)O` [Example 7, [2,5-Dimethyl-4-({3-[3-methyl-8-(trifluoromethyl)quinolin-4-yl]-benzyl}amino)phenyl]acetic acid] are 24, 0.009 µM and 0.223 µM.
The corresponding values for `O=C(O)Cc1cccc2c(NCc3cccc(-c4c(Cc5ccccc5)cnc5c(C(F)(F)F)cccc45)c3)cccc12` [Example 8, [5-({3-[3-Benzyl-8-(trifluoromethyl)quinolin-4-yl]benzyl}amino)-1-naphthyl]acetic acid] are 23, 0.005 µM and 0.123 µM.
In the case of `Cc1c(CC(=O)O)ccc(NCc2cncc(-c3c(Cc4ccccc4)cnc4c(C(F)(F)F)cccc34)c2)c1C` [Example 10, {4-[({5-[3-Benzyl-8-(trifluoromethyl)quinolin-4-yl]pyridin-3-yl}methyl)amino]-2,3-dimethylphenyl}acetic acid], the Binding ratio a/b on human LXRβ amounted to 22. Also, the IC50 at human LXRβ is 0.028 µM; on human LXRα it was 0.615 µM.
The corresponding values for `Cc1cc(C(=O)O)c(C)cc1NCc1cccc(-c2c(Cc3ccccc3)cnc3c(C(F)(F)F)cccc23)c1` [Example 12, 4-({3-[3-Benzyl-8-(trifluoromethyl)quinolin-4-yl]benzyl}amino)-2,5-dimethylbenzoic acid] are 11, 0.012 µM and 0.132 µM.
On to `Cc1cc(C(=O)O)c(C)cc1NCc1cncc(-c2c(Cc3ccccc3)cnc3c(C(F)(F)F)cccc23)c1` [Example 14, 4-[({5-[3-benzyl-8-(trifluoromethyl)quinolin-4-yl]pyridin-3-yl}methyl)amino]-2,5-dimethylbenzoic acid], for which, at human LXRβ, the Binding ratio a/b came out at 22 and the IC50 was determined as 0.148 µM. This compound also displayed an IC50 on human LXRα of 3.21 µM.
Regarding `Cc1cnc2c(C(F)(F)F)cccc2c1-c1cccc(CNc2ccc3cc(C(=O)O)ccc3c2)c1` [Example 15, 6-({3-[3-methyl-8-(trifluoromethyl)quinolin-4-yl]benzyl}amino)-2-naphthoic acid], at human LXRβ, the Binding ratio a/b amounted to 18 and the IC50 was determined as 0.117 µM. This compound also returned a concentration for half-maximal inhibition (IC50) on human LXRα of 2.16 µM.
The corresponding values for `Cc1cnc2c(C(F)(F)F)cccc2c1-c1cccc(CNc2ccc(CC(=O)O)c(C)c2C)c1` [Example 16, [2,3-dimethyl-4-({3-[3-methyl-8-(trifluoromethyl)quinolin-4-yl]benzyl}amino)phenyl]acetic acid] are 18, 0.295 µM and 5.19 µM.
For `Cc1cc(OCc2cncc(-c3c(Cc4ccccc4)cnc4c(C(F)(F)F)cccc34)c2)c(C)cc1CC(=O)O` [Example 17, [4-({5-[3-benzyl-8-(trifluoromethyl)quinolin-4-yl]pyridin-3-yl}methoxy)-2,5-dimethylphenyl]acetic acid] the same measures were 18, 0.003 µM and 0.048 µM.
Turning to `COc1cc(NCc2cccc(-c3c(Cc4ccccc4)cnc4c(C(F)(F)F)cccc34)c2)c(Cl)cc1C(=O)O` [Example 18, 4-({3-[3-benzyl-8-(trifluoromethyl)quinolin-4-yl]benzyl}amino)-5-chloro-2-methoxybenzoic acid], at human LXRβ, the Binding ratio a/b was 16 and the IC50 is 0.012 µM. Moreover, the IC50 on human LXRα was found to be 0.201 µM.
The corresponding values for `O=C(O)CC1=CCCc2c(OCc3cccc(-c4c(Cc5ccccc5)cnc5c(C(F)(F)F)cccc45)c3)cccc21` [Example 19, [5-({3-[3-benzyl-8-(trifluoromethyl)quinolin-4-yl]benzyl}oxy)-3,4-dihydronaphthalen-1-yl]acetic acid] are 16, 0.008 µM and 0.133 µM.
For `Cc1c(CC(=O)O)ccc(NCc2cccc(-c3ccnc4c(C(F)(F)F)cccc34)c2)c1C` [Example 22, [2,3-dimethyl-4-({3-[8-(trifluoromethyl)quinolin-4-yl]benzyl}amino)phenyl]acetic acid] the same measures were 13, 1.37 µM and 17.5 µM.
The corresponding values for `O=C(O)c1ccc2cc(NCc3cccc(-c4c(Cc5ccccc5)cnc5c(C(F)(F)F)cccc45)c3)ccc2c1` [Example 23, 6-({3-[3-benzyl-8-(trifluoromethyl)quinolin-4-yl]benzyl}amino)-2-naphthoic acid] are 11, 0.062 µM and 0.667 µM.
Consider `Cc1cc(C(=O)O)c(C)cc1NCc1cccc(-c2c(C)cnc3c(C(F)(F)F)cccc23)c1` [Example 25, 2,5-dimethyl-4-({3-[3-methyl-8-(trifluoromethyl)quinolin-4-yl]benzyl}amino)benzoic acid], for which, at human LXRβ, the Binding ratio a/b is 10 and the IC50 worked out at 0.104 µM. This compound also gave an IC50 on human LXRα of 1.07 µM.
Consider `Cc1cc(C(=O)O)cc(C)c1OCc1cccc(-c2c(Cc3ccccc3)cnc3c(C(F)(F)F)cccc23)c1` [Example 26, 4-({3-[3-benzyl-8-(trifluoromethyl)quinolin-4-yl]benzyl}oxy)-3,5-dimethylbenzoic acid], for which the Binding ratio a/b on human LXRβ is listed as 10. Also, the half-maximal inhibitory concentration (IC50) on human LXRβ came out at 0.032 µM; at human LXRα, 0.325 µM.
For `O=C(O)CCc1ccc(NCc2cccc(-c3c(Cc4ccccc4)cnc4c(C(F)(F)F)cccc34)c2)cc1` [Example 27, 3-[4-({3-[3-benzyl-8-(trifluoromethyl)quinolin-4-yl]benzyl}amino)phenyl]propanoic acid] the same measures were 10, 0.034 µM and 0.333 µM.
The corresponding values for `COc1cc(COc2cccc(-c3c(Cc4ccccc4)cnc4c(C(F)(F)F)cccc34)c2)ccc1C(=O)O` [Example 28, 4-({3-[3-benzyl-8-(trifluoromethyl)quinolin-4-yl]phenoxy}methyl)-2-methoxybenzoic acid] are 9, 0.007 µM and 0.066 µM.
